{"source": "patent US8841324B2", "about": "“Heterocyclic compounds as autotaxin inhibitors” (Merck Patent GmbH, priority 2009, dated 2014)"}
{"biological_target": "T1, recombinant autotaxin (Homo sapiens, UniProt Q13822)", "T1 construct": "made in house; host or cells: Hi5 insect cells (baculovirus)", "experiment": "Autotaxin test (enzyme test), Amplex Red fluorescence readout", "assay_type": "biochemical", "details": "Autotaxin inhibition (enzyme test); substrate LPC 75 μM, 37° C. for 90 min", "protocol": "Pharmacological Data Autotaxin Inhibition (Enzyme Test)\nAutotaxin Test (Enzyme Test)\nThe autotaxin activity is measured indirectly using Amplex Red reagent. Amplex Red is measured here as fluorogenic indicator for the H2O2 formed. In detail, autotaxin converts the substrate lysophosphatidylcholine (LPC) into phosphocholine and lysophosphatidylic acid (LPA). After this reaction, the phosphocholine is reacted with alkaline phosphatase to give inorganic phosphate and choline. In the next step, choline is oxidised by choline oxidase to give betaine, with formation of H2O2. H2O2 reacts with Amplex Red reagent in the presence of peroxidase (horseradish peroxidase) in a 1:1 stoichiometry and forms the highly fluorescent resorufin. The fluorescence is measured in a reaction-dependent kinetic mode in order that fluorescent signals from possible other fluorescent substances which are not involved in the reaction can be corrected out.\n1.5 μl of a standard solution or of the test substances (substances with the name A(n)) in individual concentrations dissolved in 20 mM Hepes pH 7.2 with a maximum of 7.7% of DMSO are pre-incubated together with 10 μl (16 ng) of highly purified recombinant autotaxin in a black microtitre plate provided with 384 wells at 22° C. for 30 min. The reaction is then initiated by addition of 5 μl of L-α-lysophosphatidylcholine (LPC), where the final concentration of LPC is 75 μM. The mixture is incubated at 37° C. for 90 min. After the incubation, Amplex Red reagent, peroxidase (horseradish peroxidase) and choline oxidase is added, and the fluorescence is immediately measured at 612 nm with excitation of 485 nm in a “Tecan Ultra multimode” reader. The activity of autotaxin is calculated indirectly via detection of the H2O2 formed.\n• Microtitre plate: PS microplate, 384 wells, small volume, black Corning, Cat#3677 • Protein: recombinant autotaxin (Baculovirale Hi5 Expression) • Substrate: L-α-lysophosphatidylcholine (chicken egg)); Avanti Polar Lipids #830071P • Standard: C14 LPA, Avanti Polar Lipids, Cat#857120P • Detection reagent: Amplex Red reagent; Invitrogen # A12222; dissolved in 1.923 ml of DMSO peroxidase type VI-A (horseradish) from Sigma # P6782; dissolved in 7.45 ml of test buffer, choline oxidase; Sigma # C5896; dissolved in 2.47 ml of test buffer • Detection reagent mix: 1:100 dilution of Amplex Red reagent in test buffer • Test buffer: 200 mM Tris HCl, Merck, Cat #1.08219, pH 7.9, 0.1% of BSA, lipid-free, Roche Cat#775835", "units": {"IC50": "nM"}}
{"molecule": "O=C(Cc1ccc2[nH]nnc2c1)N1CCN(C(=O)OCc2ccc(Cl)cc2)CC1", "note": "[Compound 24, 4-chlorobenzyl 4-(2-1H-benzotriazol-5-ylacetyl)piperazine-1-carboxylate]", "IC50": "> 1000"}
{"molecule": "O=C(CN1CCC(NC(=O)OCc2cc(Cl)cc(Cl)c2)C1)Nc1ccc2[nH]nnc2c1", "note": "(stereo not drawn) [Compound A16, 3,5-Dichlorobenzyl {1-[(1H-benzotriazol-5-yl-carbamoyl)methyl]pyrrolidin-3-yl}crbamate]", "IC50": "> 1000"}
{"molecule": "O=C(CN1CCN(C(=O)CCOc2ccc(Cl)cc2)CC1)c1ccc2[nH]c(=O)oc2c1", "note": "[Compound 27, 6-(2-{4-[3-(4-chlorophenoxy)propionyl]piperazin-1-yl}acetyl)-3H-benzoxazol-2-one]", "IC50": "> 1000"}
{"molecule": "O=C(CCCN1CCN(C(=O)OCc2ccc(Cl)cc2)CC1)Nc1ccc2[nH]nnc2c1", "note": "[Compound A14, 4-Chlorobenzyl 4-[3-(1H-benzotriazol-5-yl-carbamoyl)propyl]piperazine-1-carboxylate]", "IC50": "> 1000"}
{"molecule": "O=C(Nc1ccc2[nH]c(=O)oc2c1)C(c1ccccc1)N1CCN(C(=O)OCc2ccc(Cl)cc2)CC1", "note": "(stereo not drawn) [Compound A10, 4-Chlorobenzyl 4-[(2-oxo-2,3-dihydrobenzoxazol-6-ylcarbamoyl)phenylmethyl]piperazine-l-carboxylate]", "IC50": "> 1000"}
{"molecule": "O=C(OCc1cc(Cl)cc(Cl)c1)N1CCN(CCN2CCC(c3ccc4[nH]c(=O)oc4c3)=N2)CC1", "note": "[Compound 21, 3,5-dichlorobenzyl 4-{2-[3-(2-oxo-2,3-dihydrobenzoxazol-6-yl)-4,5-dihydropyrazol-1-yl]ethyl}piperazine-1-carboxylate]", "IC50": "> 1000"}
{"molecule": "O=C(NCCN1CCN(C(=O)OCc2ccc(C(F)(F)F)cc2)CC1)c1ccc2[nH]nnc2c1", "note": "[Compound A2, 4-Trifluoromethylbenzyl 4-{2-[(1H-benzotriazole-5-carbonyl)amino]ethyl}piperazine-1-carboxylate]", "IC50": "> 1000"}
{"molecule": "O=C(NC1[C@H]2CN(C(=O)OCc3cc(Cl)cc(Cl)c3)C[C@@H]12)c1ccc2nn[nH]c2c1", "note": "(stereo partly drawn) [Compound A17, 3,5-Dichlorobenzyl (1R,5S)-6-[(3H-benzotriazole-5-carbonyl)amino]-3-azabicyclo[3.1.0]hexane-3-carboxylate]", "IC50": "> 1000"}
{"molecule": "O=C(CCNC(=O)N1CCN(C(=O)OCc2ccc(Cl)cc2)CC1)Nc1ccc2[nH]nnc2c1", "note": "[Compound 33, 4-chlorobenzyl 4-[2-(1H-benzotriazol-5-ylcarbamoyl)ethyl-carbamoyl]piperazine-1-carboxylate]", "IC50": "> 1000"}
{"molecule": "O=C(CC(=O)NC1CCN(C(=O)OCc2ccc(Cl)cc2)CC1)Nc1ccc2[nH]nnc2c1", "note": "[Compound 39, 4-chlorobenzyl 4-[2-(1H-benzotriazol-5-ylcarbamoyl)acetylamino]piperidine-1-carboxylate]", "IC50": "100 to 1000"}
{"molecule": "O=C(OCc1cc(Cl)cc(Cl)c1)N1CCN(CC(O)c2ccc3[nH]c(=O)oc3c2)CC1", "note": "(stereo not drawn) [Compound A18, 3,5-Dichlorobenzyl 4-[2-hydroxy-2-(2-oxo-2,3-dihydrobenzoxazol-6-yl)ethyl]piperazine-1-carboxylate]", "IC50": "> 1000"}
{"molecule": "O=C(CN1CCN(C(=O)OCc2ccc(Cl)cc2)CC1)Nc1ccc2[nH]c(=O)oc2c1", "note": "[Compound A8, 4-Chlorobenzyl 4-[(2-oxo-2,3-dihydrobenzoxazol-6-ylcarbamoyl)methyl]piperazine-1-carboxylate]", "IC50": "> 1000"}
{"molecule": "O=C(CCN1CCN(C(=O)OCc2ccc(Cl)cc2)CC1)Nc1ccc2[nH]c(=O)oc2c1", "note": "[Compound A13, 4-Chlorobenzyl 4-[2-(2-oxo-2,3-dihydrobenzoxazol-6-ylcarbamoyl)ethyl]piperazine-1-carboxylate]", "IC50": "> 1000"}
{"molecule": "O=C(OCc1ccc(Cl)cc1)N1CCN(CCC(F)(F)c2ccc3[nH]c(=O)oc3c2)CC1", "note": "[Compound 17, 4-chlorobenzyl 4-[3,3-difluoro-3-(2-oxo-2,3-dihydrobenzoxazol-6-yl)propyl]piperazine-1-carboxylate]", "IC50": "100 to 1000"}
{"molecule": "O=C(CNC1CCN(C(=O)OCc2cc(Cl)cc(Cl)c2)CC1)Nc1ccc2[nH]c(=O)oc2c1", "note": "[Compound 11, 3,5-dichlorobenzyl 4-{[(2-oxo-2,3-dihydrobenzoxazol-6-ylcarbamoyl)methyl]amino}piperidine-1-carboxylate]", "IC50": "100 to 1000"}
{"molecule": "O=C(NCCN1CCN(C(=O)OCc2cc(Cl)cc(Cl)c2)CC1)c1ccc2[nH]nnc2c1", "note": "[Compound A1, 3,5-Dichlorobenzyl 4-{2-[(1H-benzotriazole-5-carbonyl)amino]ethyl}piperazine-1-carboxylate]", "IC50": "100 to 1000"}
{"molecule": "O=C(NCCN1CCN(C(=O)OCc2ccc(Cl)cc2F)CC1)c1ccc2[nH]nnc2c1", "note": "[Compound A3, 4-Chloro-2-fluorobenzyl 4-{2-[(1H-benzotriazole-5-carbonyl)amino]ethyl}piperazine-1-carboxylate]", "IC50": "> 1000"}
{"molecule": "O=C(OCc1cc(Cl)cc(Cl)c1)N1CCN(CCC(O)c2ccc3[nH]c(=O)oc3c2)CC1", "note": "(stereo not drawn) [Compound 13, 3,5-dichlorobenzyl 4-[3-hydroxy-3-(2-oxo-2,3-dihydrobenzoxazol-6-yl)propyl]piperazine-1-carboxylate]", "IC50": "100 to 1000"}
